Experimental findings from publication PMC4992025, “A Colorimetric Microplate Assay for DNA-Binding Activity of His-Tagged MutS Protein” (Molecular Biotechnology, 2016) are described below.

The target in the test is T1, TthMutS (Thermus thermophilus, UniProt Q56239).
T1 construct: gene mutS; N-terminal His-tag translational fusion, tag kept; expressed in E. coli BL21(DE3)pLysS; IMAC purified; immobilized on nickel plate; 92 kDa monomer (stated for MutS generally)
T1 sequence (Q56239 2-819): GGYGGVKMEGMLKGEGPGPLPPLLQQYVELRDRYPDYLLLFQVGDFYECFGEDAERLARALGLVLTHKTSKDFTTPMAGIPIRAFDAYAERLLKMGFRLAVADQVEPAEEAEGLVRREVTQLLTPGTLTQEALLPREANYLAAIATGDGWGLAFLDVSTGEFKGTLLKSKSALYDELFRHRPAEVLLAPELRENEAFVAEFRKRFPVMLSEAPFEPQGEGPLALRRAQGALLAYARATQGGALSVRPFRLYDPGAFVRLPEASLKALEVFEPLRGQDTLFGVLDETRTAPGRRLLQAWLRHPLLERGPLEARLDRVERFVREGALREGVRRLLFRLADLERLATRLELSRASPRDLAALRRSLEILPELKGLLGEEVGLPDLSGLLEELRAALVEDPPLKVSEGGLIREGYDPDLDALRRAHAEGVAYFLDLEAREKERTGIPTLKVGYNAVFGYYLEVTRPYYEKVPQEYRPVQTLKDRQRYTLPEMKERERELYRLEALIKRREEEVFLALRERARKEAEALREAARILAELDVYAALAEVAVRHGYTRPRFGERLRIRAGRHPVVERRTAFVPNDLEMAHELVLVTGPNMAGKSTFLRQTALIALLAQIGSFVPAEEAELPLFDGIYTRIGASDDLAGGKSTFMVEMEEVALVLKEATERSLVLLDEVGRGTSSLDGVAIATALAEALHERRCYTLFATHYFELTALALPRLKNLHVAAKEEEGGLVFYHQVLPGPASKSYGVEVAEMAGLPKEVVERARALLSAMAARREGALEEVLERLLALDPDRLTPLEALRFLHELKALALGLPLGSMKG
The test is described as follows: colorimetric nickel-plate DNA mismatch binding assay (A620). Format: biochemical. The following applies: 1 mM ADP; 300 mM salt (PBSx2); room temperature; immobilized his-tagged protein; modulator of TG49 mismatch versus TA49 DNA binding.

As for `Nc1ncnc2c1ncn2[C@@H]1O[C@H](COP(=O)(O)OP(=O)(O)O)[C@@H](O)[C@H]1O` [ADP], the “colorimetric nickel-plate DNA mismatch binding assay (A620)” value was “In the presence of ADP, the specificity of MutS from T. thermophilus strongly increased”.
